What was measured:
Conditions in all cases: 72 h
MDA-MB-231 [1] = test system: MDA-MB-231
Description: (§1)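 Drug sensitivity and resistance testing (DSRT) of breast cancer cell lines in 384-well plates, 5 concentrations in 10-fold dilutions over a compound-specific 10,000-fold range. After 72 h, cytotoxicity was read by CellTox Green fluorescence and viability by CellTiter-Glo luminescence (multiplexed), normalised to DMSO and benzethonium chloride controls. EC50 is the inflection point of the fitted dose-response curve (bottom asymptote free, so it can be relative for partial curves) and is censored at the highest tested concentration. Rows with DSS 0 (no meaningful response) were excluded.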

DU-4475 [2] = test system: DU-4475
Description: as §1

MCF-10A [3] = test system: MCF-10A
Description: as §1

CAL-120 [4] = test system: CAL-120
Description: as §1

CAL-85-1 [5] = test system: CAL-85-1
Description: as §1

HDQ-P1 [6] = test system: HDQ-P1
Procedure, shortened: (§2)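 A 20 µl suspension of breast cancer cells was placed in 384-well plates that already contained compound at 5 concentrations in 10-fold steps across a compound-specific 10,000-fold range, and the plates were left for 72 h. CellTox Green fluorescence at 485/520 nm gave cell death, and CellTiter-Glo luminescence, read after 10 min at room temperature, gave viability. Each plate was normalised to 0.1 % DMSO and a positive kill control. EC50 was fitted from the curves and censored at the top concentration.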

HCC1937 [7] = test system: HCC1937
Procedure, shortened: as §2

MDA-MB-231 [8] = test system: MDA-MB-231; remark: listed apart in the source
Procedure, shortened: as §2

BT-474 [9] = test system: BT-474
Procedure, shortened: as §2

MDA-MB-436 [10] = test system: MDA-MB-436
Procedure, shortened: as §2

MFM-223 [11] = test system: MFM-223
Procedure, shortened: as §2

DU-4475 [12] = test system: DU-4475; remark: listed apart in the source
Procedure, shortened: as §2

MCF-10A [13] = test system: MCF-10A; remark: listed apart in the source
Procedure, shortened: as §2

CAL-120 [14] = test system: CAL-120; remark: listed apart in the source
Procedure, shortened: as §2

Hs578T [15] = test system: Hs578T
Procedure, shortened: as §2

CAL-85-1 [16] = test system: CAL-85-1; remark: listed apart in the source
Procedure, shortened: as §2

CAL-148 [17] = test system: CAL-148
Description: as §1

HCC1599 [18] = test system: HCC1599
Procedure, shortened: as §2

MDA-MB-453 [19] = test system: MDA-MB-453
Procedure, shortened: as §2

SK-BR-3 [20] = test system: SK-BR-3
Procedure, shortened: as §2

MDA-MB-436 [21] = test system: MDA-MB-436; remark: listed apart in the source
Description: as §1

CAL-51 [22] = test system: CAL-51
Description: as §1

HCC1143 [23] = test system: HCC1143
Procedure, shortened: as §2

CAL-148 [24] = test system: CAL-148; remark: listed apart in the source
Procedure, shortened: as §2

MDA-MB-468 [25] = test system: MDA-MB-468
Procedure, shortened: as §2

BT-549 [26] = test system: BT-549
Procedure, shortened: as §2

CAL-51 [27] = test system: CAL-51; remark: listed apart in the source
Procedure, shortened: as §2

HDQ-P1 [28] = test system: HDQ-P1; remark: listed apart in the source
Procedure, shortened: (§3)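 For viability, cells received 2.5 µl CellTiter-Blue for 2 h at 37 °C and fluorescence was read at 560/590 nm. Before this, breast cancer cell lines in 20 µl suspension had been incubated for 72 h on 384-well plates pre-loaded with compound dissolved in 5 µl medium. EC50 was obtained from a percent-inhibition dose-response fit censored at the highest concentration, after normalisation of each plate to vehicle and a positive kill control; rows with a zero drug sensitivity score were discarded.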

MDA-MB-453 [29] = test system: MDA-MB-453; remark: listed apart in the source
Procedure, shortened: as §3

DU-4475 [30] = test system: DU-4475; remark: listed apart in the source
Procedure, shortened: as §3

CAL-148 [31] = test system: CAL-148; remark: listed apart in the source
Procedure, shortened: as §3

CAL-51 [32] = test system: CAL-51; remark: listed apart in the source
Procedure, shortened: as §3

CAL-85-1 [33] = test system: CAL-85-1; remark: listed apart in the source
Procedure, shortened: as §3

HCC1937 [34] = test system: HCC1937; remark: listed apart in the source
Procedure, shortened: as §3

HCC1143 [35] = test system: HCC1143; remark: listed apart in the source
Procedure, shortened: as §3

MDA-MB-231 [36] = test system: MDA-MB-231; remark: listed apart in the source
Procedure, shortened: as §3

HCC1599 [37] = test system: HCC1599; remark: listed apart in the source
Procedure, shortened: as §3

BT-474 [38] = test system: BT-474; remark: listed apart in the source
Procedure, shortened: as §3

MDA-MB-436 [39] = test system: MDA-MB-436; remark: listed apart in the source
Procedure, shortened: as §3

MFM-223 [40] = test system: MFM-223; remark: listed apart in the source
Procedure, shortened: as §3

MDA-MB-468 [41] = test system: MDA-MB-468; remark: listed apart in the source
Procedure, shortened: as §3

SK-BR-3 [42] = test system: SK-BR-3; remark: listed apart in the source
Procedure, shortened: as §3

CAL-120 [43] = test system: CAL-120; remark: listed apart in the source
Procedure, shortened: as §3

Hs578T [44] = test system: Hs578T; remark: listed apart in the source
Procedure, shortened: as §3

BT-549 [45] = test system: BT-549; remark: listed apart in the source
Procedure, shortened: as §3

CC(=O)Nc1cccc(-n2c(=O)n(C3CC3)c(=O)c3c(Nc4ccc(I)cc4F)n(C)c(=O)c(C)c32)c1 [Trametinib]
EC50, CellTox Green (MDA-MB-231 [1]): 0.0004 µM | EC50, CellTox Green (DU-4475 [2]): 0.00232 µM | EC50, CellTox Green (MCF-10A [3]): 0.0792 µM | EC50, CellTox Green (CAL-120 [4]): 0.0454 µM | EC50, CellTox Green (CAL-85-1 [5]): 0.0715 µM | EC50, CellTiter-Glo (HDQ-P1 [6]): 0.0017 µM | EC50, CellTiter-Glo (HCC1937 [7]): 0.172 µM | EC50, CellTiter-Glo (MDA-MB-231 [8]): 0.00645 µM | EC50, CellTiter-Glo (BT-474 [9]): 0.0147 µM | EC50, CellTiter-Glo (MDA-MB-436 [10]): 0.067 µM | EC50, CellTiter-Glo (MFM-223 [11]): 0.0532 µM | EC50, CellTiter-Glo (DU-4475 [12]): 0.00137 µM | EC50, CellTiter-Glo (MCF-10A [13]): 0.00071 µM | EC50, CellTiter-Glo (CAL-120 [14]): 0.0162 µM | EC50, CellTiter-Glo (Hs578T [15]): 0.137 µM | EC50, CellTiter-Glo (CAL-85-1 [16]): 0.0211 µM

Cc1cnc(NC(=O)Nc2cc(Br)c(C)cc2OC[C@@H]2CNCCO2)cn1 [Rabusertib]
EC50, CellTox Green (CAL-148 [17]): > 1 µM | EC50, CellTiter-Glo (HCC1599 [18]): 0.691 µM | EC50, CellTiter-Glo (MDA-MB-453 [19]): 0.219 µM | EC50, CellTiter-Glo (SK-BR-3 [20]): 0.918 µM | EC50, CellTiter-Glo (Hs578T [15]): 0.354 µM | EC50, CellTiter-Glo (CAL-85-1 [16]): > 1 µM

CCCCC(=O)OCC(=O)[C@]1(O)Cc2c(O)c3c(c(O)c2[C@@H](O[C@H]2C[C@H](NC(=O)C(F)(F)F)[C@H](O)[C@H](C)O2)C1)C(=O)c1c(OC)cccc1C3=O [Valrubicin]
EC50, CellTox Green (MDA-MB-436 [21]): > 5 µM | EC50, CellTox Green (CAL-148 [17]): 0.0466 µM | EC50, CellTox Green (CAL-51 [22]): 0.0261 µM | EC50, CellTiter-Glo (HDQ-P1 [6]): 0.661 µM | EC50, CellTiter-Glo (HCC1937 [7]): 0.629 µM | EC50, CellTiter-Glo (HCC1143 [23]): 0.697 µM | EC50, CellTiter-Glo (MDA-MB-231 [8]): 4.48 µM | EC50, CellTiter-Glo (HCC1599 [18]): 3.22 µM | EC50, CellTiter-Glo (BT-474 [9]): 2.64 µM | EC50, CellTiter-Glo (MDA-MB-436 [10]): 0.311 µM | EC50, CellTiter-Glo (MDA-MB-453 [19]): 3.05 µM | EC50, CellTiter-Glo (MFM-223 [11]): 4.32 µM | EC50, CellTiter-Glo (DU-4475 [12]): 0.462 µM | EC50, CellTiter-Glo (CAL-148 [24]): 0.322 µM | EC50, CellTiter-Glo (MCF-10A [13]): 0.746 µM | EC50, CellTiter-Glo (MDA-MB-468 [25]): 0.29 µM | EC50, CellTiter-Glo (SK-BR-3 [20]): 0.343 µM | EC50, CellTiter-Glo (Hs578T [15]): 0.944 µM | EC50, CellTiter-Glo (BT-549 [26]): 0.794 µM | EC50, CellTiter-Glo (CAL-51 [27]): 0.162 µM | EC50, CellTiter-Glo (CAL-85-1 [16]): 1.34 µM | EC50, CellTiter-Blue viability (HDQ-P1 [28]): 0.236 µM | EC50, CellTiter-Blue viability (MDA-MB-453 [29]): 0.83 µM | EC50, CellTiter-Blue viability (DU-4475 [30]): 0.0655 µM | EC50, CellTiter-Blue viability (CAL-148 [31]): 0.123 µM | EC50, CellTiter-Blue viability (CAL-51 [32]): 0.148 µM | EC50, CellTiter-Blue viability (CAL-85-1 [33]): 1.17 µM | EC50, CellTiter-Blue viability (HCC1937 [34]): 0.211 µM | EC50, CellTiter-Blue viability (HCC1143 [35]): 0.525 µM | EC50, CellTiter-Blue viability (MDA-MB-231 [36]): 0.721 µM | EC50, CellTiter-Blue viability (HCC1599 [37]): 2.32 µM | EC50, CellTiter-Blue viability (BT-474 [38]): 0.916 µM | EC50, CellTiter-Blue viability (MDA-MB-436 [39]): 1.52 µM | EC50, CellTiter-Blue viability (MFM-223 [40]): 2.81 µM | EC50, CellTiter-Blue viability (MDA-MB-468 [41]): 0.369 µM | EC50, CellTiter-Blue viability (SK-BR-3 [42]): 0.17 µM | EC50, CellTiter-Blue viability (CAL-120 [43]): 0.281 µM | EC50, CellTiter-Blue viability (Hs578T [44]): 1.23 µM | EC50, CellTiter-Blue viability (BT-549 [45]): 1.09 µM
